Source: the supplement of paper PMC10307832

Experiments:
Assay in all cases: relative viability (nuclei count vs DMSO), 5 days (fraction); higher = more cells survive
[1] = tested on: SK-LU-1
Summary of the method: (§1)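 Lung cancer cell lines, seeded in 1536-well plates, were treated the following day by pin tool with a single drug or with five library-drug doses (not always all listed) in √10 steps on top of a fixed anchor-drug dose. Cells were fixed and nuclei stained in one step after 5 days, and nuclei were counted. Relative viability is the nuclei count for treated wells divided by that for vehicle wells, reported as medians of duplicate plates.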

[2] = tested on: NCI-H1975
Summary of the method: as §1

[3] = tested on: SW 1573
Summary of the method: as §1

[4] = tested on: HCC-827
Summary of the method: as §1

[5] = tested on: ChaGo-K-1
Summary of the method: as §1

[6] = tested on: EPLC-272H
Summary of the method: as §1

[7] = tested on: NCI-H1666
Summary of the method: as §1

[8] = tested on: LK-2
Summary of the method: as §1

[9] = tested on: HCC-78
Summary of the method: as §1

[10] = tested on: NCI-H2126
Summary of the method: as §1

[11] = tested on: NCI-H322M
Summary of the method: as §1

[12] = tested on: PC-14
Summary of the method: as §1

[13] = tested on: NCI-H2342
Summary of the method: as §1

[14] = tested on: NCI-H23
Summary of the method: as §1

[15] = tested on: EKVX
Summary of the method: as §1

[16] = tested on: EMC-BAC-2
Summary of the method: as §1

[17] = tested on: LU99A
Summary of the method: as §1

[18] = tested on: SW 900
Summary of the method: as §1

[19] = tested on: LCLC-103H
Summary of the method: as §1

[20] = tested on: NCI-H2405
Summary of the method: as §1

[21] = tested on: RERF-LC-KJ
Summary of the method: as §1

Molecule `CC(=O)O[C@@]12CO[C@@H]1C[C@H](O)[C@@]1(C)C(=O)[C@H](O)C3=C(C)[C@@H](OC(=O)[C@H](O)[C@@H](NC(=O)OC(C)(C)C)c4ccccc4)C[C@@](O)([C@@H](OC(=O)c4ccccc4)[C@H]21)C3(C)C` [Docetaxel] + Cc1cc(Nc2cc(N3CCN(C)CC3)nc(Sc3ccc(NC(=O)C4CC4)cc3)n2)n[nH]1 [Tozasertib] (partner 0.1 µM) has a relative viability ([1]; first compound 0.0002 µM) of 0.297, a relative viability ([1]; first compound 0.000632 µM) of 0.302 and a relative viability ([1]; first compound 0.002 µM) of 0.308. It also gave a relative viability ([1]; first compound 0.006325 µM) of 0.252, a relative viability ([1]; first compound 0.02 µM) of 0.217 and a relative viability ([2]; first compound 0.0002 µM) of 0.705. The relative viability ([2]; first compound 0.000632 µM) was 0.367, the relative viability ([2]; first compound 0.002 µM) was 0.158 and the relative viability ([2]; first compound 0.006325 µM) was 0.133. The relative viability ([2]; first compound 0.02 µM) was 0.0956, the relative viability ([3]; first compound 0.0002 µM) was 0.24 and the relative viability ([3]; first compound 0.000632 µM) was 0.189. The relative viability ([3]; first compound 0.002 µM) was 0.256, the relative viability ([3]; first compound 0.02 µM) was 0.199 and the relative viability ([4]; first compound 0.0002 µM) was 0.406. For the same molecule, the relative viability ([4]; first compound 0.000632 µM) was 0.412, the relative viability ([4]; first compound 0.002 µM) was 0.328 and the relative viability ([4]; first compound 0.006325 µM) was 0.332. The relative viability ([4]; first compound 0.02 µM) was 0.295, the relative viability ([5]; first compound 0.0002 µM) was 0.218 and the relative viability ([5]; first compound 0.002 µM) was 0.201. It also gave a relative viability ([5]; first compound 0.006325 µM) of 0.199, a relative viability ([5]; first compound 0.02 µM) of 0.185 and a relative viability ([6]; first compound 0.0002 µM) of 0.219. It also gave a relative viability ([6]; first compound 0.000632 µM) of 0.129, a relative viability ([6]; first compound 0.002 µM) of 0.132 and a relative viability ([6]; first compound 0.006325 µM) of 0.0975. The relative viability ([6]; first compound 0.02 µM) was 0.104, the relative viability ([7]; first compound 0.0002 µM) was 0.564 and the relative viability ([7]; first compound 0.000632 µM) was 0.506. For the same molecule, the relative viability ([7]; first compound 0.002 µM) was 0.496, the relative viability ([7]; first compound 0.006325 µM) was 0.418 and the relative viability ([7]; first compound 0.02 µM) was 0.31. For the same molecule, the relative viability ([8]; first compound 0.0002 µM) was 0.155, the relative viability ([8]; first compound 0.000632 µM) was 0.215 and the relative viability ([8]; first compound 0.002 µM) was 0.157. It also gave a relative viability ([8]; first compound 0.006325 µM) of 0.188, a relative viability ([8]; first compound 0.02 µM) of 0.166 and a relative viability ([9]; first compound 0.0002 µM) of 0.386. It also gave a relative viability ([9]; first compound 0.000632 µM) of 0.436, a relative viability ([9]; first compound 0.002 µM) of 0.278 and a relative viability ([9]; first compound 0.006325 µM) of 0.344. It also gave a relative viability ([9]; first compound 0.02 µM) of 0.368, a relative viability ([10]; first compound 0.0002 µM) of 0.785 and a relative viability ([10]; first compound 0.000632 µM) of 0.45. It also gave a relative viability ([10]; first compound 0.002 µM) of 0.359, a relative viability ([10]; first compound 0.006325 µM) of 0.354 and a relative viability ([10]; first compound 0.02 µM) of 0.237. The relative viability ([11]; first compound 0.0002 µM) was 0.479, the relative viability ([11]; first compound 0.000632 µM) was 0.477 and the relative viability ([11]; first compound 0.002 µM) was 0.49. The relative viability ([11]; first compound 0.006325 µM) was 0.485, the relative viability ([11]; first compound 0.02 µM) was 0.476 and the relative viability ([12]; first compound 0.0002 µM) was 0.534. It also gave a relative viability ([12]; first compound 0.000632 µM) of 0.489, a relative viability ([12]; first compound 0.002 µM) of 0.0877 and a relative viability ([12]; first compound 0.006325 µM) of 0.0613. For the same molecule, the relative viability ([12]; first compound 0.02 µM) was 0.0312, the relative viability ([13]; first compound 0.0002 µM) was 0.584 and the relative viability ([13]; first compound 0.000632 µM) was 0.539. It also gave a relative viability ([13]; first compound 0.002 µM) of 0.543, a relative viability ([13]; first compound 0.006325 µM) of 0.466 and a relative viability ([13]; first compound 0.02 µM) of 0.297. The relative viability ([14]; first compound 0.0002 µM) was 0.39, the relative viability ([14]; first compound 0.000632 µM) was 0.314 and the relative viability ([14]; first compound 0.002 µM) was 0.195. For the same molecule, the relative viability ([14]; first compound 0.006325 µM) was 0.198, the relative viability ([14]; first compound 0.02 µM) was 0.166 and the relative viability ([15]; first compound 0.0002 µM) was 0.519. For the same molecule, the relative viability ([15]; first compound 0.000632 µM) was 0.409, the relative viability ([15]; first compound 0.002 µM) was 0.224 and the relative viability ([15]; first compound 0.006325 µM) was 0.212. The relative viability ([15]; first compound 0.02 µM) was 0.149, the relative viability ([16]; first compound 0.0002 µM) was 0.296 and the relative viability ([16]; first compound 0.000632 µM) was 0.321. It also gave a relative viability ([16]; first compound 0.006325 µM) of 0.26, a relative viability ([16]; first compound 0.02 µM) of 0.185 and a relative viability ([17]; first compound 0.0002 µM) of 0.262. The relative viability ([17]; first compound 0.000632 µM) was 0.289, the relative viability ([17]; first compound 0.002 µM) was 0.236 and the relative viability ([17]; first compound 0.006325 µM) was 0.307. It also gave a relative viability ([17]; first compound 0.02 µM) of 0.211, a relative viability ([18]; first compound 0.0002 µM) of 0.453 and a relative viability ([18]; first compound 0.000632 µM) of 0.296. The relative viability ([18]; first compound 0.002 µM) was 0.259, the relative viability ([18]; first compound 0.006325 µM) was 0.277 and the relative viability ([18]; first compound 0.02 µM) was 0.173. It also gave a relative viability ([19]; first compound 0.0002 µM) of 0.48, a relative viability ([19]; first compound 0.000632 µM) of 0.39 and a relative viability ([19]; first compound 0.002 µM) of 0.358. The relative viability ([19]; first compound 0.006325 µM) was 0.377, the relative viability ([19]; first compound 0.02 µM) was 0.296 and the relative viability ([20]; first compound 0.0002 µM) was 0.699. It also gave a relative viability ([20]; first compound 0.000632 µM) of 0.556, a relative viability ([20]; first compound 0.002 µM) of 0.461 and a relative viability ([20]; first compound 0.006325 µM) of 0.361. For the same molecule, the relative viability ([20]; first compound 0.02 µM) was 0.278, the relative viability ([21]; first compound 0.0002 µM) was 0.525 and the relative viability ([21]; first compound 0.000632 µM) was 0.403. It also gave a relative viability ([21]; first compound 0.002 µM) of 0.279, a relative viability ([21]; first compound 0.006325 µM) of 0.278 and a relative viability ([21]; first compound 0.02 µM) of 0.197.
